The results in this text go back to ChEMBL document CHEMBL1128468, “Amino acid side chain descriptors for quantitative structure-activity relationship studies of peptide analogues” (J Med Chem, 1995).

Usually pA2 stands for a measure of antagonist potency on a negative log scale. Read a low pA2 as a weaker antagonist.

Peptide text beside a SMILES is read from it.

One test has as its target T1, Oxytocin receptor (Rattus norvegicus, UniProt P70536).
T1 sequence (P70536 whole entry): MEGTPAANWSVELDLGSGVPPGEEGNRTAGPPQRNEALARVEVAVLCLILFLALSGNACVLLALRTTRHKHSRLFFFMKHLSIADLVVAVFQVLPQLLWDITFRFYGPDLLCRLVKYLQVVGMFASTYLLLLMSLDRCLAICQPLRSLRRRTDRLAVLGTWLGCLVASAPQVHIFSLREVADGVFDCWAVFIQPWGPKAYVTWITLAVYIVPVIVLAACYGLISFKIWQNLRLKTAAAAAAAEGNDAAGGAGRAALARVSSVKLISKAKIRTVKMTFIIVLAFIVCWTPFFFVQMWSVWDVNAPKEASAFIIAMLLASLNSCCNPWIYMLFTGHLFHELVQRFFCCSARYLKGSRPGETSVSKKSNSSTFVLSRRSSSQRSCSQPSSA
Put plainly: Biological activity against Oxytocin receptor in rat.

Test [1] in a line: Bitter tasting threshold was expressed as log 1/T. The class given is functional.
Test [2] deals with Angiotensin-converting enzyme (Homo sapiens, UniProt P12821). Put plainly: Biological activity was measured against Angiotensin I converting enzyme. Particulars: read-out: Log 1/IC50 (converted).
Sequence of Angiotensin-converting enzyme (P12821 whole entry): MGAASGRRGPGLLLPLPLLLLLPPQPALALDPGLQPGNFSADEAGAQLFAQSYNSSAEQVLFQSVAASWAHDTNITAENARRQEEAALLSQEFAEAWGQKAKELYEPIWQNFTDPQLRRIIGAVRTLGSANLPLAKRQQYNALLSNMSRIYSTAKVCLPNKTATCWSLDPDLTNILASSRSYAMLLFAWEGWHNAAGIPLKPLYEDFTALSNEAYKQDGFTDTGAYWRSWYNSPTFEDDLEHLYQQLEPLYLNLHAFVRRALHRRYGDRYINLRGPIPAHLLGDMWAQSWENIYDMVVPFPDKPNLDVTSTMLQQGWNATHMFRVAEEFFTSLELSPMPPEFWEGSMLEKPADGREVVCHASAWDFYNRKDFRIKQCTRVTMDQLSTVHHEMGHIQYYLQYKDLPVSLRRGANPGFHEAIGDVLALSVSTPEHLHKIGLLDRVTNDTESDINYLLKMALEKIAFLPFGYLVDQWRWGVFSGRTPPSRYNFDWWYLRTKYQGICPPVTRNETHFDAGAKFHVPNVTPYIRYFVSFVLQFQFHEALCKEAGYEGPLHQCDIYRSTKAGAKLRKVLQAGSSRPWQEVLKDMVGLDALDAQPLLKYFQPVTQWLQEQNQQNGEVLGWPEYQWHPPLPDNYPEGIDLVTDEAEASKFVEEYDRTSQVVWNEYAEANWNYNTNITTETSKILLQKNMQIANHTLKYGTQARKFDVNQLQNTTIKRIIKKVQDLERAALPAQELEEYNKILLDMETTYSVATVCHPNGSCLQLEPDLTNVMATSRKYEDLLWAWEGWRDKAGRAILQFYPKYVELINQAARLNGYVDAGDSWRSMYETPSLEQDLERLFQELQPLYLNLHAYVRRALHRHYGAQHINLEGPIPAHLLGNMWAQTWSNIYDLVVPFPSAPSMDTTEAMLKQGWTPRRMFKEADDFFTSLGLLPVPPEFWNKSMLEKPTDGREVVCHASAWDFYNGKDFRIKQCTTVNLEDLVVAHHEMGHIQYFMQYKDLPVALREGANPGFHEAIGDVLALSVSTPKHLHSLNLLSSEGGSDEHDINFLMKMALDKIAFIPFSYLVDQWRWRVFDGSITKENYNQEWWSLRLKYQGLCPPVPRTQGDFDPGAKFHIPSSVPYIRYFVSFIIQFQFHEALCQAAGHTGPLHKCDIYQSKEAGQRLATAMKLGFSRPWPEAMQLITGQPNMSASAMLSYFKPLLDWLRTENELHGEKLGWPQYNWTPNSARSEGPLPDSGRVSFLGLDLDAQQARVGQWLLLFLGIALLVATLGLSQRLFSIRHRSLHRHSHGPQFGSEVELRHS

At Oxytocin receptor, `CC[C@H](C)[C@H](NC(=O)[C@@H](Cc1c[nH]c2ccccc12)NC(=O)CC1(S)CCCCC1)C(=O)N[C@H](CC(N)=O)C(=O)N[C@@H](CC(N)=O)C(=O)N[C@@H](CS)C(=O)N1CCC[C@H]1C(=O)N[C@@H](CCCN=C(N)N)C(=O)NCC(N)=O` returned a pA2 of 5.41.

Compound `CC[C@H](C)[C@H](NC(=O)[C@@H](Cc1c[nH]c2ccccc12)NC(=O)CC1(S)CCCCC1)C(=O)N[C@H](CCC(N)=O)C(=O)N[C@@H](CC(N)=O)C(=O)N[C@@H](CS)C(=O)N1CCC[C@H]1C(=O)N[C@@H](CCCN=C(N)N)C(=O)NCC(N)=O` had a pA2 at Oxytocin receptor of 5.24.

As for `CC(C)C[C@H](NC(=O)CN)C(=O)O`, the Log 1/T in test [1] turned out to be 1.68. In addition, in test [2], the IC50 was 2510 µM.

Turning to `CC[C@H](C)[C@H](N)C(=O)N[C@H](C(=O)O)C(C)O` (single isomer, unassigned), the Log 1/T in test [1] was 1.49.

In test [1], `CC(C)C[C@H](NC(=O)[C@@H](N)C(C)C)C(=O)O` (H-Val-Leu-OH) had a Log 1/T of 2.

Compound `NCC(=O)N[C@@H](Cc1ccccc1)C(=O)O` (H-Gly-Phe-OH) displayed a Log 1/T in test [1] of 1.8. For the same compound, in test [2], the IC50 was 631 µM.

Consider `C[C@H](N)C(=O)N[C@@H](Cc1ccccc1)C(=O)O`, for which, in test [1], the Log 1/T stood at 1.72. Moreover, the IC50 in test [2] was 191 µM.

For `CC[C@H](C)[C@@H]1NC(=O)[C@@H](Cc2c[nH]c3ccccc23)NC(=O)CC2(CCCCC2)SSC[C@@H](C(=O)N2CCC[C@H]2C(=O)N[C@@H](CCCN=C(N)N)C(=O)NCC(N)=O)NC(=O)[C@H](CC(N)=O)NC(=O)[C@@H]([C@H](C)O)NC1=O`, the pA2 at Oxytocin receptor came out at 4.95.

Consider `CC[C@H](C)[C@@H]1NC(=O)[C@@H](Cc2c[nH]c3ccccc23)NC(=O)CC2(CCCCC2)SSC(C)(C)[C@H](C(=O)N2CCC[C@H]2C(=O)N[C@@H](CCCN=C(N)N)C(=O)NCC(N)=O)NC(=O)[C@H](CC(N)=O)NC(=O)[C@H](CCC(=O)O)NC1=O`, for which, at Oxytocin receptor, the pA2 is listed as 7.98.

In test [1], `CCC(C)[C@H](NC(=O)[C@@H](N)[C@@H](C)CC)C(=O)O` (single isomer, unassigned) came in with a Log 1/T of 2.26.

In the case of `CC[C@H](C)[C@H](NC(=O)[C@@H](Cc1c[nH]c2ccccc12)NC(=O)CC1(S)CCCCC1)C(=O)N[C@H](CCCNC(N)=O)C(=O)N[C@@H](CC(N)=O)C(=O)N[C@@H](CS)C(=O)N1CCC[C@H]1C(=O)N[C@@H](CCCN=C(N)N)C(=O)NCC(N)=O`, on Oxytocin receptor, the pA2 turned out to be 5.51.
